The values below come from US20240376176A1 (priority 2021, published 2024).

Structures are written as SMILES. Structures can show the parent of a compound that is named as a salt.

One series has as its system sciatic nerve. Conditions: rat, in vivo.
In series [1] the test system is sciatic nerves and adjacent tissues. The settings on record: rat, in vivo.
Series [2] addresses natural sodium channel proteins. Conditions: cited from earlier work.

For `CCCCN1CCCCC1C(=O)Nc1c(C)cccc1C` (stereo not drawn) [Free Bup, bupivacaine hydrochloride], the “Duration of nerve block” value in the series on sciatic nerve is 2.4 ± 0.3 h.
With `NC1=N[C@H](O)[C@H]2[C@H]3O[C@]4(O)O[C@@H]([C@@H](O)[C@@]2(N1)[C@@H]4O)[C@]3(O)CO` [Free TTX, tetrodotoxin], in series [1], the “Inflammation Score (range) Day 4” value was 0.5, the “Inflammation Score (range) Day 14” value is on record as 0 (0-1.0), the “Myotoxicity Score (range) Day 4” value is reported as 0 (0-1.0) and the “Myotoxicity Score (range) Day 14” value was 0 (0-1.0). Moreover, in series [2], the Kd was around 1.3 nM.
